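How tested: cells in 96-well plates exposed to compound for 48 hours at five concentrations. GI50: concentration for 50% inhibition of growth.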 The source made the active and inactive calls. No stated cut-off is given here; in the data, active = GI50 up to about 1.1 µM and inactive = higher.
How the values were obtained:
Assay in all cases: inhibition of tumour cell growth, NCI panel, 48 h
[1] = tested on: SF-295
[2] = tested on: HCC 2998
[3] = tested on: RPMI-8226
[4] = tested on: NCI/ADR-RES
[5] = tested on: SNB-19
[6] = tested on: OVCAR-8
[7] = tested on: SK-MEL-5
[8] = tested on: SR
[9] = tested on: SK-OV-3
[10] = tested on: MOLT-4
[11] = tested on: M14
[12] = tested on: IGROV-1
[13] = tested on: SK-MEL-28
[14] = tested on: CCRF-CEM
[15] = tested on: 786-0
[16] = tested on: COLO 205
[17] = tested on: U-251
[18] = tested on: A549
[19] = tested on: UACC-62
[20] = tested on: MCF7

Measured: GI50

COC1CC(C)([N+](=O)[O-])C(O)C(C)O1 (stereo not given)
inactive: [1] > 100 µM | [2] > 100 µM | [3] > 100 µM | [4] > 100 µM | [5] > 100 µM | [6] > 100 µM | [7] > 100 µM | [8] > 100 µM | [9] > 100 µM | [10] > 100 µM | [11] > 100 µM | [12] > 100 µM | [13] > 100 µM | [14] > 100 µM | [15] > 100 µM | [16] > 100 µM | [17] > 100 µM | [18] > 100 µM | [19] > 100 µM | [20] > 100 µM

O=c1c2cc(Cl)ccc2[nH]c2cc(O)cc(O)c12
inactive: [1] > 10 µM | [2] > 10 µM | [3] > 10 µM | [4] > 10 µM | [5] > 10 µM | [6] > 10 µM | [7] > 10 µM | [8] > 10 µM | [9] > 10 µM | [10] > 10 µM | [11] > 10 µM | [12] > 10 µM | [13] > 10 µM | [14] > 10 µM | [15] > 10 µM | [16] > 10 µM | [17] > 10 µM | [18] > 10 µM | [19] > 10 µM | [20] > 10 µM

O=C1OC(c2ccccc2)N/C1=C\c1ccc2c(c1)OCO2 (stereo not given)
inactive: [1] > 100 µM | [2] 54.2 µM | [3] 25.2 µM | [4] > 52.2 µM | [5] > 100 µM | [6] 43.5 µM | [7] > 55.8 µM | [8] 28.1 µM | [9] > 100 µM | [10] > 63.1 µM | [11] > 74 µM | [12] 48.6 µM | [13] 87.5 µM | [14] 33.6 µM | [15] > 100 µM | [16] > 100 µM | [17] 59.3 µM | [18] > 100 µM | [19] > 100 µM | [20] > 100 µM

CCCCCC1=CC(=O)C1(Cl)Cl
inactive: [1] 18.9 µM | [2] 14.2 µM | [3] 2.77 µM | [4] 17.9 µM | [5] 24.9 µM | [6] 10.6 µM | [7] 9.48 µM | [8] 6 µM | [9] 33.9 µM | [10] 3.67 µM | [11] 18.4 µM | [12] 18.4 µM | [13] 14.5 µM | [14] 2.23 µM | [15] 13.9 µM | [16] 12.2 µM | [17] 9.23 µM | [18] 23.5 µM | [19] 10.9 µM | [20] 8.11 µM

CC(=O)Oc1ccc(/C=C/C(=O)OCCOC(=O)/C=C/c2ccc(OC(C)=O)c(OC(C)=O)c2)cc1OC(C)=O
inactive: [1] 8.97 µM | [2] 14.5 µM | [3] 4.12 µM | [4] 4.06 µM | [5] 11.9 µM | [6] 4.8 µM | [7] 7.36 µM | [8] 3.78 µM | [9] 13.9 µM | [10] 5.61 µM | [11] 10.8 µM | [12] 2.95 µM | [13] 14.4 µM | [14] 1.25 µM | [15] 5.06 µM | [16] 14.1 µM | [17] 4.99 µM | [18] 16.1 µM | [19] 5 µM | [20] 9.64 µM

N=C(N)Nc1ccc(-c2ccc(NC(=N)N)cc2)cc1
inactive: [1] 17.8 µM | [2] 63 µM | [3] 19.5 µM | [4] 42.5 µM | [5] 41.4 µM | [6] 43.8 µM | [7] 16.3 µM | [8] 14.6 µM | [9] > 55.8 µM | [10] > 100 µM | [11] 36.1 µM | [12] 20.2 µM | [13] 45.5 µM | [14] 37.3 µM | [15] 24 µM | [16] 21.5 µM | [17] 23.6 µM | [18] 6.03 µM | [19] 40.1 µM | [20] 39.2 µM

CC(=O)O[C@H]1CCC2[C@@H]3CCC4NC(=O)C(C#N)C[C@]4(C)C3CC[C@@]21C (stereo not given in full)
inactive: [1] > 10 µM | [2] > 10 µM | [3] > 10 µM | [4] > 10 µM | [5] > 10 µM | [6] > 10 µM | [7] > 10 µM | [8] > 10 µM | [9] > 10 µM | [10] > 10 µM | [11] > 10 µM | [12] > 10 µM | [13] > 10 µM | [14] > 10 µM | [15] > 10 µM | [16] > 10 µM | [17] > 10 µM | [18] > 10 µM | [19] > 10 µM | [20] > 10 µM

— ChEMBL document CHEMBL1201862, “PubChem BioAssay data set” (2004)
